Assay results taken from patent US8568997B2, “Detection system and uses therefor” (Dimerix Bioscience Pty Ltd., priority 2006, dated 2013).
“Also recorded” adds a separate entry of the source.

How the values were obtained:
Assay type in all cases: cell-based
OxR2 = molecular target: T1, OxR2 (Homo sapiens, UniProt O43614); assay: BRET/eBRET beta-arrestin 2 recruitment to OxR2/Rluc (or Rluc8) without IG3 (pcDNA3); settings: OxR2/Rluc8 + barr2/Venus + pcDNA3
T1 construct: expressed in transfected cells; host or cells: HEK293
T1 sequence (O43614 1-444): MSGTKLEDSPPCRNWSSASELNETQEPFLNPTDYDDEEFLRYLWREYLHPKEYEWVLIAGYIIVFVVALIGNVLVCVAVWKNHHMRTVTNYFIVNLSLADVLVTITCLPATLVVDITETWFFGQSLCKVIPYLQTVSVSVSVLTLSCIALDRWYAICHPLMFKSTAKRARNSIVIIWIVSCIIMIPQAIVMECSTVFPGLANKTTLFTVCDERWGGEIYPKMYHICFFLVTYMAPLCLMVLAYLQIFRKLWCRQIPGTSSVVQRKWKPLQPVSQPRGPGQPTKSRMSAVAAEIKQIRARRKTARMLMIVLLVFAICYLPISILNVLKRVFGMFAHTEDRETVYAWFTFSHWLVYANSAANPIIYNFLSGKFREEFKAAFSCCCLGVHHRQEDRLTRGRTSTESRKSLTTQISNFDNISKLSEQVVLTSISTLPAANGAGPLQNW
Experimental: (§1) Phosphate-buffered saline (PBS) was used as a vehicle control.
(§2) Cells were seeded in 6-well plates at a density of approximately 630,000 cells/well (HEK293FT) or approximately 150,000 cells/well (COS-7) and maintained at 37° C., 5% CO2 in Complete Media (DMEM containing 0.3 mg/ml glutamine, 100 IU/ml penicillin and 100 μg/ml streptomycin (Gibco)) supplemented with 10% fetal calf serum (FCS; Gibco). Transient transfections were carried out 24 h after seeding using GeneJuice (Novagen) or Metafectene (Biontex) according to manufacturer instructions. 24 h post-transfection, cells were washed with PBS, detached using 0.05% trypsin/0.53 mM EDTA, resuspended in HEPES-buffered phenol red free Complete Media containing 5% FCS and added to a poly-L-lysine-coated white microplate (Nunc). 48 h post-transfection, eBRET assays were carried out following pre-incubation of cells with EnduRen™ (Promega) at a final concentration of 30-40 μM, at 37° C., 5% CO2 for 2 h. For original BRET studies, the HEPES-buffered phenol red free Complete Media was replaced with PBS and coelenterazine h (Molecular Probes) added to a final concentration of 5 μM immediately prior to commencing the assay. […] Filtered light emissions were sequentially measured for 3-5 s in each of the ‘donor wavelength window’ (400-475 nm) and ‘acceptor wavelength window’ (>500 nm for EGFP or 520-540 nm for EYFP, Topaz (TYFP) or Venus). […]

[1] = test system: thyrotropin releasing hormone receptor (TRHR); assay: eBRET/BRET beta-arrestin recruitment to TRHR/Rluc without IG3 (pcDNA3) in HEK293 cells
Experimental: eBRET measurements at 37 C were carried out on HEK293 cells transiently co-expressing TRHR/Rluc and barr2/Venus with either pcDNA3, orexin receptor 2 (OxR2), CXC chemokine receptor 2 (CXCR2), hemagglutin epitope-tagged melanocortin receptor 3 or 4 (HA-MC3R or HA-MC4R), or dopamine D2 receptor long form (D2LR) or short form (D2SR) following the treatment of each with their respective ligands.
Ligand treatments were either OxA or TRH only or both OxA and TRH combined. Phosphate-buffered saline (PBS) was used as a vehicle control.
Ligand treatments were either OxA or TRH only. Phosphate-buffered saline (PBS) was used as a vehicle control.
BRET measurements at 37 C were carried out on HEK293 cells transiently co-expressing TRHR/Rluc, barr2/Venus and pcDNA3 with increasing doses of TRH. Sigmoidal dose response curves were plotted using Prism (Graph Pad), either assuming a Hill slope of 1 or allowing for variable slope. The EC50 and Hill slope values for the variable slope curve are included in a table in the graph.
TRHR is IG1, Rluc is RC1, barr1 is IG2, EGFP is RC2 and OxR2 is IG3. The same amount of EGFP/barr1 (IG2-RC2) is transfected for each experiment.
Cells were seeded in 6-well plates at a density of approximately 630,000 cells/well (HEK293FT) or approximately 150,000 cells/well (COS-7) and maintained at 37° C., 5% CO2 in Complete Media (DMEM containing 0.3 mg/ml glutamine, 100 IU/ml penicillin and 100 μg/ml streptomycin (Gibco)) supplemented with 10% fetal calf serum (FCS; Gibco). Transient transfections were carried out 24 h after seeding using GeneJuice (Novagen) or Metafectene (Biontex) according to manufacturer instructions. 24 h post-transfection, cells were washed with PBS, detached using 0.05% trypsin/0.53 mM EDTA, resuspended in HEPES-buffered phenol red free Complete Media containing 5% FCS and added to a poly-L-lysine-coated white microplate (Nunc). 48 h post-transfection, eBRET assays were carried out following pre-incubation of cells with EnduRen™ (Promega) at a final concentration of 30-40 μM, at 37° C., 5% CO2 for 2 h. For original BRET studies, the HEPES-buffered phenol red free Complete Media was replaced with PBS and coelenterazine h (Molecular Probes) added to a final concentration of 5 μM immediately prior to commencing the assay. BRET measurements were taken at 37° C. using the Victor Light plate reader with Wallac 1420 software (Perkin-Elmer). Filtered light emissions were sequentially measured for 3-5 s in each of the ‘donor wavelength window’ (400-475 nm) and ‘acceptor wavelength window’ (>500 nm for EGFP or 520-540 nm for EYFP, Topaz (TYFP) or Venus). The BRET signal observed between interacting proteins is normalized by subtracting the background BRET ratio. This can be done in one of two ways (see Pfleger et al. (2006) Cell Signal 18, 1664-1670; Pfleger et al. (2006) Nat Protoc 1, 336-344): 1) the ratio of light emission through the ‘acceptor wavelength window’ over the 400-475 nm emission for a cell sample containing only the donor construct is subtracted from the same ratio for a sample containing the interacting acceptor and donor fusion proteins; 2) the ratio of light emission through the ‘acceptor wavelength window’ over the 400-475 nm emission for a cell sample treated with vehicle is subtracted from the same ratio for a second aliquot of the same cell sample treated with ligand. In the following examples, the first calculation will be used, unless the signal is described as the ligand-induced BRET ratio'.

OxR2 with HA-TRHR = molecular target: T2, OxR2 with HA-TRHR (Homo sapiens, UniProt O43614+P34981); assay: eBRET between OxR2/Rluc8 and barr2/Venus with HA-TRHR as IG3
T2 construct: expressed in transfected cells; host or cells: HEK293
T2 sequence (O43614 1-444): T1 sequence (O43614 1-444)
T2 sequence (P34981 1-398): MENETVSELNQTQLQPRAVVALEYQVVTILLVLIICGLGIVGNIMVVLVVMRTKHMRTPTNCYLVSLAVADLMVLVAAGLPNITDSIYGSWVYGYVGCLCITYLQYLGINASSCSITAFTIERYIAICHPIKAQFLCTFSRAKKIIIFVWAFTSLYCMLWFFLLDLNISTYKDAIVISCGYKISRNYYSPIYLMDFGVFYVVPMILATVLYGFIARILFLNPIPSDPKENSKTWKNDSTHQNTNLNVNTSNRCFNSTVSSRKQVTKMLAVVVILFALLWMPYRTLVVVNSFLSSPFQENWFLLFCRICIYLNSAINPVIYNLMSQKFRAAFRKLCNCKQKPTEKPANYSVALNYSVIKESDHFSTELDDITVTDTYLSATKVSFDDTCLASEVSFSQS
Experimental: as §1, §2

[2] = test system: TRHR335 (truncated TRHR) with OxR2; assay: eBRET/BRET between TRHR335/Rluc and labelled beta-arrestin with OxR2 as IG3
Experimental: Cells were seeded in 6-well plates at a density of approximately 630,000 cells/well (HEK293FT) or approximately 150,000 cells/well (COS-7) and maintained at 37° C., 5% CO2 in Complete Media (DMEM containing 0.3 mg/ml glutamine, 100 IU/ml penicillin and 100 μg/ml streptomycin (Gibco)) supplemented with 10% fetal calf serum (FCS; Gibco). Transient transfections were carried out 24 h after seeding using GeneJuice (Novagen) or Metafectene (Biontex) according to manufacturer instructions. 24 h post-transfection, cells were washed with PBS, detached using 0.05% trypsin/0.53 mM EDTA, resuspended in HEPES-buffered phenol red free Complete Media containing 5% FCS and added to a poly-L-lysine-coated white microplate (Nunc). 48 h post-transfection, eBRET assays were carried out following pre-incubation of cells with EnduRen™ (Promega) at a final concentration of 30-40 μM, at 37° C., 5% CO2 for 2 h. For original BRET studies, the HEPES-buffered phenol red free Complete Media was replaced with PBS and coelenterazine h (Molecular Probes) added to a final concentration of 5 μM immediately prior to commencing the assay. […] Filtered light emissions were sequentially measured for 3-5 s in each of the ‘donor wavelength window’ (400-475 nm) and ‘acceptor wavelength window’ (>500 nm for EGFP or 520-540 nm for EYFP, Topaz (TYFP) or Venus). The BRET signal observed between interacting proteins is normalized by subtracting the background BRET ratio.

[3] = molecular target: bradykinin B2 receptor (B2R) with HA-AT1R (Homo sapiens, UniProt P30556); assay: eBRET between B2R/Rluc8 and barr2/Venus with HA-AT1R as IG3
Sequence of bradykinin B2 receptor (B2R) with HA-AT1R (P30411 whole entry): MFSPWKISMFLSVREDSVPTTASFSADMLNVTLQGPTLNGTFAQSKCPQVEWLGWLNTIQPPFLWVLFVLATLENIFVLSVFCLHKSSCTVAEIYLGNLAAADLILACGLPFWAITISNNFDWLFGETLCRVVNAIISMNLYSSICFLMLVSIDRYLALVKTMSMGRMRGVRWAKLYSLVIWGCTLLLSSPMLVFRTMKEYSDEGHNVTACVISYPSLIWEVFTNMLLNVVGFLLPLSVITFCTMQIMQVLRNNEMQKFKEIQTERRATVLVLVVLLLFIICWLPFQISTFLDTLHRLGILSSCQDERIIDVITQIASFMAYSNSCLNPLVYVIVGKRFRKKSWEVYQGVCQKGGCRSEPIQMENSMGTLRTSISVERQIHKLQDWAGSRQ
Sequence of bradykinin B2 receptor (B2R) with HA-AT1R (P30556 whole entry): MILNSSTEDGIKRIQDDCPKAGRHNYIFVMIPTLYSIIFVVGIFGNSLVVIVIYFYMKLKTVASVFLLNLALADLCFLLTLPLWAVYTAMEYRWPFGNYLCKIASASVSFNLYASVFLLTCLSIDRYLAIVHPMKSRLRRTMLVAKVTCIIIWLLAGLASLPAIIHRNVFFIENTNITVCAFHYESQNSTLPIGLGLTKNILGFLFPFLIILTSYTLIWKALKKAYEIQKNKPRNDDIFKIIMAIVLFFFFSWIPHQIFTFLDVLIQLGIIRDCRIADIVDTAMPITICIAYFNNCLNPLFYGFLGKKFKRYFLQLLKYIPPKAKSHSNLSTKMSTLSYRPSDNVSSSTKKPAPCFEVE
Experimental: Phosphate-buffered saline (PBS) was used as a vehicle control. Data presented as ligand-induced BRET ratio.
BRET measurements at 37 C were carried out on HEK293 cells transiently co-expressing B2R/Rluc8, barr2/Venus and HA-AT1R treated with increasing doses of Angiotensin II (AngII). A sigmoidal dose response curve was plotted using Prism (GraphPad) allowing for variable slope.
Cells were seeded in 6-well plates at a density of approximately 630,000 cells/well (HEK293FT) or approximately 150,000 cells/well (COS-7) and maintained at 37° C., 5% CO2 in Complete Media (DMEM containing 0.3 mg/ml glutamine, 100 IU/ml penicillin and 100 μg/ml streptomycin (Gibco)) supplemented with 10% fetal calf serum (FCS; Gibco). Transient transfections were carried out 24 h after seeding using GeneJuice (Novagen) or Metafectene (Biontex) according to manufacturer instructions. […] BRET measurements were taken at 37° C. using the Victor Light plate reader with Wallac 1420 software (Perkin-Elmer). Filtered light emissions were sequentially measured for 3-5 s in each of the ‘donor wavelength window’ (400-475 nm) and ‘acceptor wavelength window’ (>500 nm for EGFP or 520-540 nm for EYFP, Topaz (TYFP) or Venus). […]

Row | Compound | ligand-induced eBRET signal (OxR2) | time to eBRET signal peak ([1]; HEK293, TRHR/Rluc + barr2/Venus + pcDNA3, ligand 10^−6M) | eBRET signal peak ([1]; HEK293, TRHR/Rluc + barr2/Venus + pcDNA3, ligand 10^−6M, 37 C) | eBRET signal ([1]; TRHR/Rluc + EGFP/barr (barr1, barr2 or barr1R169E), no OxR2) | dose-response Hill slope ([1]; TRHR/Rluc + barr2/Venus + pcDNA3, FIG. 10) | ligand-induced eBRET signal (OxR2 with HA-TRHR) | eBRET signal ([2]; TRHR335/Rluc + EGFP/barr1 + OxR2) | BRET signal, dose response curves ([2]; TRHR335/Rluc + barr2/Venus + OxR2) | eBRET signal (ligand-induced BRET ratio) [3]
1 | NC(=O)[C@@H]1CCCN1C(=O)[C@H](Cc1cnc[nH]1)NC(=O)[C@@H]1CCC(=O)N1 [TRH, pGlu-His-Pro-NH2] | No ligand-induced eBRET signal | Within the first minute | greater than 0.17 | rapid stimulation of the eBRET signal; also recorded: rapid increase in eBRET signal | approximately 1 | 0.05 | no eBRET signal above baseline | does not result in a BRET signal | 
2 | AngII |  |  |  |  |  |  |  |  | robust increase in the eBRET signal
